Measured values reported in patent publication US20040220164A1, “Triaza compound immunoregulatory agents” (priority 2001, published 2004).
Where two headings read alike, the source gives them in different places.

Columns and labels:
CD11b = test: Cell surface antigen expression by flow cytometry (Table 2); assay type: cell-based, human; conditions: CADA 16 μM, 4 days, percentage of positive cells, unit not given
Description: (§1) Expression of various other surface antigens was also examined in MT-4 cells, SupT1 cells and PBMCs after incubation with CADA (16 μM) or CADA-free medium at 37° C. for 4 days. After washing with phosphate-buffered saline (PBS) containing 2% FCS(fetal calf serum), the cells were incubated with mAb (as indicated in Table 1) for 20 min at 4° C. Then the cells were washed, fixed with 1% formaldehyde and analyzed by flow cytometry. All mAbs were purchased from Becton-Dickinson (Erembodegem, Belgium).

CD28 = test: as above; assay type: cell-based, human; conditions: CADA 16 μM, 4 days, percentage of positive cells, unit not given
Description: as §1

CD2 = test: as above; assay type: cell-based, human; conditions: CADA 16 μM, 4 days, percentage of positive cells, unit not given
Description: as §1

CD38 = test: as above; assay type: cell-based, human; conditions: CADA 16 μM, 4 days, percentage of positive cells, unit not given
Description: as §1

CD3 = test: as above; assay type: cell-based, human; conditions: CADA 16 μM, 4 days, percentage of positive cells, unit not given
Description: as §1

CD45RA = test: as above; assay type: cell-based, human; conditions: CADA 16 μM, 4 days, percentage of positive cells, unit not given
Description: as §1

CD57 = test: as above; assay type: cell-based, human; conditions: CADA 16 μM, 4 days, percentage of positive cells, unit not given
Description: as §1

CD5 = test: as above; assay type: cell-based, human; conditions: CADA 16 μM, 4 days, percentage of positive cells, unit not given
Description: as §1

CD71 = test: as above; assay type: cell-based, human; conditions: CADA 16 μM, 4 days, percentage of positive cells, unit not given
Description: as §1

HLA-DR = test: as above; assay type: cell-based, human; conditions: CADA 16 μM, 4 days, percentage of positive cells, unit not given
Description: as §1

TCRα/β = test: as above; assay type: cell-based, human; conditions: CADA 16 μM, 4 days, percentage of positive cells, unit not given
Description: as §1

HHV-7 (KHR strain) = test: Anti-HHV-7 assay (HHV-7 antigen expression, flow cytometry, day 12); assay type: cell-based
Description: (§2) The antiviral activity of CADA against HIV-1 and RHV-7 was investigated. PBMCs and […] cell-depleted PBMCs (removed with CD8 magnetic beads; Dynal AS, Oslo, Norway), previously activated with purified PHA (2 μg/ml) and rhIL-2 (1 ng/ml) for 3 days, were pelleted and exposed to HIV-1 (1 ng p24 Ag per 10^6 cells) for 2 hours at 370C. Then the cells were washed three times with warm medium and cultured in complete medium containing rhIL-2 (1 ng/ml) in the presence or absence of different concentrations of CADA hydrochloride. The anti-HIV-1 assays were also performed in MT-4 and SupT1 cells. CADA hydrochloride was diluted in the plates, then the MT-4 cells or SupT1 cells were added and finally the T-tropic HIV-1 strains. The supernatant was collected at day 5 for MT-4 cells, day 8 for SupT1 cells and day 12 for PBMCs, and stored at −20° C. and analyzed for HIV-1 core antigen by p24 Ag ELISA (NEN, Brussels, Belgium). The SupT1 cells were refreshed on day 4, and half of the medium and cells were replaced and fresh CADA-free medium was added. For the PBMCs, fresh culture medium was added at day 6 containing rhIL-2 (but no CADA). For the anti-HHV-7 assays in PBMCs, CADA hydrochloride was diluted in a plate, 2×10˜cells were added and then HHV-7 (KHR strain) was added in complete medium containing rhIL-2 (1 ng/ml). Fresh culture medium was added again at day 6 containing rhIL-2 (but no CADA). The same infection protocol was used for the SupT1 cells, but without rhIL-2. The SupT1 cells were refreshed on day 4 and day 8, half of the medium and the cells were replaced, and fresh medium without CADA was added. The HHV-7 antigen expression was monitored (at day 12) with a specific mAb to HHV-7 (RK-4) (Advanced Biotechnologies, Columbia, Md.) by flow cytometry, as described previously (Thang, Y., et al., Antiviral Res. 43:23-35 (1999)).

HIV-1 strain RF = test: Anti-HIV-1 assay (p24 Ag ELISA); assay type: cell-based; conditions: for IC50: read-out: IC50 against HIV-1 RF; for p24 viral core antigen in supernatant: MT-4, RF
Description: as §2
Table 4 presents the results for MT-4 cells pretreated with CADA for 1 day at 8.1 μM and then infected with the HIV-1 strain NL4.3 or RF in the presence or absence of CADA. […] As three CD4 binding events are needed to efficiently activate HIV-1 Env trimers (Layne, S. P., et al., Nature 346: 602-605 (1990)), multimeric CD4 binding is required for HIV infection, further confirming that receptor density plays a crucial role in the efficiency of viral infectivity (Platt, E. J., et al., J. Virol. 71: 883-890 (1997)). […] Primary HIV isolates seem to be much more dependent on the level of CD4 expression (Kabat; D., et al., J. Virol. 68:2570-2577 (1994)). […] Although CD4-independent viruses are described (Hofflian, T. L., et al., Proc. Natl. Acad. Sci. U.S.A. 96: 63 59-6364 (1999)), these are much more sensitive to neutralization by antibodies, which explains the rarity of CD4-independent wild-type HIV variants (Kolchinski, P., et al., J. Virol. 75: 204 1-2050 (2001)).

[1] = Cytotoxic concentration (Example 2); assay type: cell-based; conditions: human, MT-4 cells; read-out: cytotoxic concentration (CC50)

C=C1CN(S(=O)(=O)c2ccc(C)cc2)CCCN(Cc2ccccc2)CCCN(S(=O)(=O)c2ccc(C)cc2)C1 [CADA]
CD11b cell surface antigen expression (CD11b; MT-4 T-cells): 9.7 | CD11b cell surface antigen expression (CD11b; PBMCs): 12.3 | CD11b cell surface antigen expression (CD11b; SupT1 T-cells): 0.6 | CD28 cell surface antigen expression (CD28; MT-4 T-cells): 6.6 | CD28 cell surface antigen expression (CD28; PBMCs): 89.6 | CD28 cell surface antigen expression (CD28; SupT1 T-cells): 90.8 | CD2 cell surface antigen expression (CD2; MT-4 T-cells): 2.6 | CD2 cell surface antigen expression (CD2; PBMCs): 90.7 | CD2 cell surface antigen expression (CD2; SupT1 T-cells): 0.5 | CD38 cell surface antigen expression (CD38; MT-4 T-cells): 84.5 | CD38 cell surface antigen expression (CD38; PBMCs): 73.2 | CD38 cell surface antigen expression (CD38; SupT1 T-cells): 99.1 | CD3 cell surface antigen expression (CD3; MT-4 T-cells): 5.9 | CD3 cell surface antigen expression (CD3; PBMCs): 89.4 | CD3 cell surface antigen expression (CD3; SupT1 T-cells): 2.7 | CD45RA cell surface antigen expression (CD45RA; MT-4 T-cells): 2.0 | CD45RA cell surface antigen expression (CD45RA; PBMCs): 64.3 | CD45RA cell surface antigen expression (CD45RA; SupT1 T-cells): 0.5 | CD57 cell surface antigen expression (CD57; MT-4 T-cells): 1.5 | CD57 cell surface antigen expression (CD57; PBMCs): 2.3 | CD57 cell surface antigen expression (CD57; SupT1 T-cells): 82.4 | CD5 cell surface antigen expression (CD5; MT-4 T-cells): 99.1 | CD5 cell surface antigen expression (CD5; PBMCs): 80.6 | CD5 cell surface antigen expression (CD5; SupT1 T-cells): 93.9 | CD71 cell surface antigen expression (CD71; MT-4 T-cells): 98.8 | CD71 cell surface antigen expression (CD71; PBMCs): 27.6 | CD71 cell surface antigen expression (CD71; SupT1 T-cells): 33.9 | HLA-DR cell surface antigen expression (HLA-DR; MT-4 T-cells): 98.7 | HLA-DR cell surface antigen expression (HLA-DR; PBMCs): 27 | HLA-DR cell surface antigen expression (HLA-DR; SupT1 T-cells): 1.7 | TCRα/β cell surface antigen expression (TCRα/β; MT-4 T-cells): 1.1 | TCRα/β cell surface antigen expression (TCRα/β; PBMCs): 82.3 | TCRα/β cell surface antigen expression (TCRα/β; SupT1 T-cells): 1.6 | IC50 (HHV-7 (KHR strain); PBMC, CD8+ depleted PBMC, read-out: IC50 against HHV-7): 900 nM | IC50 (HHV-7 (KHR strain); PBMC, read-out: IC50 against HHV-7): 1500 nM | IC50 (HHV-7 (KHR strain); SUP-T1, SupT1 cells, PBMCs and CD8+ T-cell depleted PBMCs, read-out: inhibitory concentration (IC50) for HHV-7, range over cell types): 300 to 1500 nM | IC50 (HHV-7 (KHR strain); SUP-T1, SupT1 cells, read-out: IC50 against HHV-7): 300 nM | IC50 (HIV-1 strain RF; Human immunodeficiency virus 1, MT4, MT-4 cells): 900 nM | IC50 (HIV-1 strain RF; Human immunodeficiency virus 1, PBMC): 1900 nM | IC50 (HIV-1 strain RF; Human immunodeficiency virus 1, SUP-T1, SupT1 cells): 1800 nM | p24 viral core antigen in supernatant (HIV-1 strain RF; cells pre-treated with CADA hydrochloride 8.1 μM 24 hours, medium without CADA after infection, untreated control 100002): 42853 pg/mL | p24 viral core antigen in supernatant (HIV-1 strain RF; not pre-treated, CADA 0.13 μM): 75118 pg/mL | p24 viral core antigen in supernatant (HIV-1 strain RF; not pre-treated, CADA 0.6 μM): 56139 pg/mL | p24 viral core antigen in supernatant (HIV-1 strain RF; not pre-treated, CADA 3.2 μM): <5 pg/mL | p24 viral core antigen in supernatant (HIV-1 strain RF; pre-treated (CADA 8.1 μM, 24 hours), CADA 0.13 μM after infection): 35894 pg/mL | p24 viral core antigen in supernatant (HIV-1 strain RF; pre-treated (CADA 8.1 μM, 24 hours), CADA 0.6 μM after infection): <5 pg/mL | p24 viral core antigen in supernatant (HIV-1 strain RF; pre-treated (CADA 8.1 μM, 24 hours), CADA 3.2 μM after infection): <5 pg/mL | CC50 [1]: 134 µM
